Experimental data: patent US20240158446A1, “CYCLIC COMPOUND HAVING SELECTIVE INHIBITORY ACTION ON KRAS OVER HRAS AND NRAS” (CHUGAI SEIYAKU KABUSHIKI KAISHA, priority 2021, published 2024)
Like-named read-outs stand apart in the source and are kept apart here. *1 amine or outer side, *2 acyl side, *3 side chain or, on linkers, in order; H or OH if unused. Where a SMILES comes first, the peptide text is derived from it. Bridges are numbered along the chain shown (N, C = ends). [ ]: non-standard residue; d: D form. The star is where a group is joined. ξ: configuration not given here. hPhe(3,5-F2-4-CF3) = N[C@@H](CCc1cc(F)c(C(F)(F)F)c(F)c1)C(=O)O; hPhe(3-Cl-4-CF3) = N[C@@H](CCc1ccc(C(F)(F)F)c(Cl)c1)C(=O)O; X23 = C=CCCN([C@@H](Cc1ccc(C(F)(F)F)cc1)C(=O)[*:2])[*:1]; X45 = O=C([C@H](Cc1ccc(C(F)(F)F)cc1)N(CCCF)[*:1])[*:2]; NPrPhe(4-CF3) = CCCN[C@@H](Cc1ccc(C(F)(F)F)cc1)C(=O)O; X26 = C=CCN([C@@H](Cc1ccccc1)C(=O)[*:2])[*:1]; NMePhe(4-F) = CN[C@@H](Cc1ccc(F)cc1)C(=O)O; NMeGly(cPent) = CN[C@H](C(=O)O)C1CCCC1; NMeNle(5-ene) = C=CCC[C@H](NC)C(=O)O; Hyp = O=C(O)[C@@H]1C[C@@H](O)CN1; dIle(3ξ) = CCC(C)[C@@H](N)C(=O)O; NMeD = CN[C@@H](CC(=O)O)C(=O)O; Ac4c(3-oxa) = NC1(C(=O)O)COC1; NMeL = CN[C@@H](CC(C)C)C(=O)O; Morpholide = C1CN(*)CCO1; NMeA = CN[C@@H](C)C(=O)O; Ac5c = NC1(C(=O)O)CCCC1; Aze = O=C(O)[C@@H]1CCN1; Ethyl(2,2-F2) = FC(F)C*; Sar = CNCC(=O)O

What was measured:
[1] = molecular target: GDP-bound NRAS wild-type protein (Homo sapiens, UniProt P01111); assay: Binding to NRAS by surface plasmon resonance (SPR), Single Cycle Kinetics; conditions: for NRAS/KRAS (ratio of KD value for NRAS to KD value for KRAS) / NRAS/KRAS (ratio of KD value with respect to NRAS to KD value with respect to KRAS): SPR, GDP-bound NRAS wild-type protein vs GDP-bound KRAS wild-type protein
GDP-bound NRAS wild-type protein, sequence (P01111 whole entry): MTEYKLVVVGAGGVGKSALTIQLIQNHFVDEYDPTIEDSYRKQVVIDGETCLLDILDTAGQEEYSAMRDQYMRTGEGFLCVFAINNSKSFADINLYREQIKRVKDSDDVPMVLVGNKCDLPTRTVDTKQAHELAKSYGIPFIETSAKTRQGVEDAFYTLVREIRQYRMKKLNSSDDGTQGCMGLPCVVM

[2] = molecular target: GDP-bound KRAS wild-type protein (Homo sapiens, UniProt P01116); assay: Binding to KRAS by surface plasmon resonance (SPR), Single Cycle Kinetics; conditions: GDP-bound KRAS wild-type protein, read-out: KRAS KD
GDP-bound KRAS wild-type protein, sequence (P01116 whole entry): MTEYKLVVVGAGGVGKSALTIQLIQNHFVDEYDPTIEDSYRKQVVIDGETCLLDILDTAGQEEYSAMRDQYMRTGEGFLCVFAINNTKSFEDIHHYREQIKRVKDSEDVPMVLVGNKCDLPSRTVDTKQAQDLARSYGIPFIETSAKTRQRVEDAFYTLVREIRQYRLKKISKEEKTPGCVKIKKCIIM

[3] = molecular target: GDP-bound HRAS wild-type protein (Homo sapiens, UniProt P01112); assay: Binding to HRAS by surface plasmon resonance (SPR), Single Cycle Kinetics; conditions: for HRAS/KRAS (ratio of KD value for HRAS to KD value for KRAS) / HRAS/KRAS (ratio of KD value with respect to HRAS to KD value with respect to KRAS): SPR, GDP-bound HRAS wild-type protein vs GDP-bound KRAS wild-type protein
GDP-bound HRAS wild-type protein, sequence (P01112 whole entry): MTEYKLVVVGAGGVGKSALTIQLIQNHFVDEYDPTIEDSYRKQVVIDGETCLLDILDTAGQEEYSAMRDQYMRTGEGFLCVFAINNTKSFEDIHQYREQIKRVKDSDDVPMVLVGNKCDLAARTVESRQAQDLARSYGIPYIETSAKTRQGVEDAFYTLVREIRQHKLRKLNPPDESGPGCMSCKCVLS

[4] = SPR Single Cycle Kinetics, 1:1 binding model

Kd [2, 4] | Kd ([2]; SPR, Single Cycle Kinetics) | SMILES | NRAS/KRAS (ratio of KD value for NRAS to KD value for KRAS) [1] | HRAS/KRAS (ratio of KD value for HRAS to KD value for KRAS) [3] | NRAS/KRAS (ratio of KD value with respect to NRAS to KD value with respect to KRAS) [1] | HRAS/KRAS (ratio of KD value with respect to HRAS to KD value with respect to KRAS) [3] | NRAS/KRAS (ratio of KD value with respect to GDP-bound NRAS wild-type protein to KD value with respect to KRAS) ([1]; SPR KD ratio NRAS/KRAS, class symbols) | HRAS/KRAS (ratio of KD value with respect to GDP-bound HRAS wild-type protein to KD value with respect to KRAS) ([3]; SPR KD ratio HRAS/KRAS, class symbols)
0.18 nM | – | CC[C@H](C)[C@@H]1NC(=O)[C@H](CC(C)C)N(C)C(=O)C[C@@H](C(=O)N2CCOCC2)N(C)C(=O)[C@H](C2CCCC2)N(C)C(=O)C2(CCCC2)NC(=O)[C@@H]2CCCN2C(=O)[C@H](CCc2ccc(C(F)(F)F)c(Cl)c2)NC(=O)CN(C)C(=O)[C@H](Cc2ccc(F)cc2)N(C)C(=O)[C@@H]2CCN2C(=O)[C@H](C)N(C)C1=O [PP0217] ([NMeL]I[NMeA][Aze][NMePhe(4-F)][Sar][hPhe(3-Cl-4-CF3)]P[Ac5c][NMeGly(cPent)][NMeD]-Morpholide; lactam N-11) | C (A compound having a KD ratio of 0.1 or more and less than 3 is denoted as C) | C (A compound having a KD ratio of 0.1 or more and less than 3 is denoted as C) | – | – | – | –
2.3 nM | – | CCCN1C(=O)CN(C)C(=O)[C@@H]2CCN2C(=O)[C@H]([C@@H](C)CC)NC(=O)[C@H](CC(C)C)N(C)C(=O)C[C@@H](C(=O)N2CCOCC2)N(C)C(=O)[C@H](C2CCCC2)N(C)C(=O)C2(COC2)NC(=O)[C@@H]2CCCN2C(=O)[C@H](CCc2cc(F)c(C(F)(F)F)c(F)c2)NC(=O)CN(C)C(=O)[C@@H]1Cc1ccc(C(F)(F)F)cc1 [PP0782] ([NMeL]I[Aze][Sar][NPrPhe(4-CF3)][Sar][hPhe(3,5-F2-4-CF3)]P[Ac4c(3-oxa)][NMeGly(cPent)][NMeD]-Morpholide; lactam N-11) | – | – | B (a compound having 3 or more and less than 10 is denoted as B) | B (a compound having 3 or more and less than 10 is denoted as B) | – | –
– | 0.088 nM | CCO[C@@H]1C[C@H]2C(=O)NC3(CCCC3)C(=O)N(C)[C@@H](C3CCCC3)C(=O)N(C)[C@H](C(=O)N3CCOCC3)CC(=O)N(C)[C@@H](CC(C)C)C(=O)N[C@@H]([C@@H](C)CC)C(=O)N(C)CC(=O)N(C)[C@H]3C[C@@H](C)CCN(C3=O)[C@@H](Cc3ccc(C(F)(F)F)cc3)C(=O)N(C)CC(=O)N[C@@H](CCc3cc(F)c(C(F)(F)F)c(F)c3)C(=O)N2C1 [PP1024] | B (a compound having 3 or more and less than 10 is denoted as B) | B (a compound having 3 or more and less than 10 is denoted as B) | – | – | – | –
180 nM | – | C=CCC[C@H]1C(=O)N(CC=C)[C@@H](Cc2ccccc2)C(=O)N(C)CC(=O)N[C@@H](CCc2ccc(C(F)(F)F)c(Cl)c2)C(=O)N2CCC[C@H]2C(=O)NC2(CCCC2)C(=O)N(C)[C@@H](C2CCCC2)C(=O)N(C)[C@H](C(=O)N2CCOCC2)CC(=O)N(C)[C@@H](CC(C)C)C(=O)N[C@H](C(C)CC)C(=O)N(C)CC(=O)N1C (stereo partly drawn) [PP0599] ([NMeL][dIle(3ξ)][Sar][NMeNle(5-ene)][X26][Sar][hPhe(3-Cl-4-CF3)]P[Ac5c][NMeGly(cPent)][NMeD]-Morpholide; lactam N-11) | – | – | C (A compound having a KD ratio of 0.1 or more and less than 3 is denoted as C) | B (a compound having 3 or more and less than 10 is denoted as B) | – | –
0.54 nM | – | CC[C@H](C)[C@@H]1NC(=O)[C@H](CC(C)C)N(C)C(=O)C[C@@H](C(=O)N2CCOCC2)N(C)C(=O)[C@H](C2CCCC2)N(C)C(=O)C2(CCCC2)NC(=O)[C@@H]2CCCN2C(=O)[C@H](CCc2ccc(C(F)(F)F)c(Cl)c2)NC(=O)CN(C)C(=O)[C@H](Cc2ccc(C(F)(F)F)cc2)N2CC/C=C\C[C@@H](C2=O)N(C)C(=O)CN(C)C1=O [PP0463] | – | – | A (a compound having 10 or more and less than 20 is denoted as A) | A (a compound having 10 or more and less than 20 is denoted as A) | – | –
0.21 nM | – | C=CCCN1C(=O)[C@@H]2CCN2C(=O)[C@H](C)N(C)C(=O)[C@H]([C@@H](C)CC)NC(=O)[C@H](CC(C)C)N(C)C(=O)C[C@@H](C(=O)N2CCOCC2)N(C)C(=O)[C@H](C2CCCC2)N(C)C(=O)C2(CCCC2)NC(=O)[C@@H]2CCCN2C(=O)[C@H](CCc2ccc(C(F)(F)F)c(Cl)c2)NC(=O)CN(C)C(=O)[C@@H]1Cc1ccc(C(F)(F)F)cc1 [PP0115] ([NMeL]I[NMeA][Aze][X23][Sar][hPhe(3-Cl-4-CF3)]P[Ac5c][NMeGly(cPent)][NMeD]-Morpholide; lactam N-11) | C (A compound having a KD ratio of 0.1 or more and less than 3 is denoted as C) | C (A compound having a KD ratio of 0.1 or more and less than 3 is denoted as C) | – | – | – | –
0.14 nM | – | CC[C@H](C)[C@@H]1NC(=O)[C@H](CC(C)C)N(C)C(=O)C[C@@H](C(=O)N2CCOCC2)N(C)C(=O)[C@H](C2CCCC2)N(C)C(=O)C2(CCCC2)NC(=O)[C@@H]2CCCN2C(=O)[C@H](CCc2ccc(C(F)(F)F)c(Cl)c2)NC(=O)CN(C)C(=O)[C@H](Cc2ccc(C(F)(F)F)cc2)N(CCCF)C(=O)[C@@H]2CCN2C(=O)[C@H](C)N(C)C1=O [PP0525] ([NMeL]I[NMeA][Aze][X45][Sar][hPhe(3-Cl-4-CF3)]P[Ac5c][NMeGly(cPent)][NMeD]-Morpholide; lactam N-11) | – | – | C (A compound having a KD ratio of 0.1 or more and less than 3 is denoted as C) | B (a compound having 3 or more and less than 10 is denoted as B) | – | –
0.054 nM | – | CCCN1C(=O)CN(C)C(=O)CN(C)C(=O)[C@H]([C@@H](C)CC)NC(=O)[C@H](CC(C)C)N(C)C(=O)C[C@@H](C(=O)N2CCOCC2)N(C)C(=O)[C@H](C2CCCC2)N(C)C(=O)C2(CCCC2)NC(=O)[C@@H]2C[C@@H](OCC(F)F)CN2C(=O)[C@H](CCc2ccc(C(F)(F)F)c(Cl)c2)NC(=O)CN(C)C(=O)[C@@H]1Cc1ccc(C(F)(F)F)cc1 [PP0246] ([NMeL]I[Sar][Sar][NPrPhe(4-CF3)][Sar][hPhe(3-Cl-4-CF3)][Hyp](Ethyl(2,2-F2))[Ac5c][NMeGly(cPent)][NMeD]-Morpholide; lactam N-11) | B (a compound having 3 or more and less than 10 is denoted as B) | C (A compound having a KD ratio of 0.1 or more and less than 3 is denoted as C) | – | – | – | –
0.36 nM | – | CC[C@H](C)[C@@H]1NC(=O)[C@H](CC(C)C)N(C)C(=O)C[C@@H](C(=O)N2CCOCC2)N(C)C(=O)[C@H](C2CCCC2)N(C)C(=O)C2(CCCC2)NC(=O)[C@H](C)N(CC)C(=O)[C@H](CCc2cc(F)c(C(F)(F)F)c(F)c2)NC(=O)CN(C)C(=O)[C@H](Cc2ccc(C(F)(F)F)cc2)N2CCCC[C@@H](C2=O)N(C)C(=O)CN(C)C1=O [PP0589] | – | – | B (a compound having 3 or more and less than 10 is denoted as B) | B (a compound having 3 or more and less than 10 is denoted as B) | – | –
0.095 nM | – | CCO[C@@H]1C[C@H]2C(=O)NC3(CC(C)(C)C3)C(=O)N(C)[C@@H](C3CCCC3)C(=O)N(C)[C@H](C(=O)N(C)CC)CC(=O)N(C)[C@@H](CC(C)C)C(=O)N[C@@H]([C@@H](C)CC)C(=O)N(C)CC(=O)N(C)[C@H]3C/C=C\CCN(C3=O)[C@@H](Cc3ccc(C(F)F)cc3)C(=O)N(C)CC(=O)N[C@@H](CCc3ccc(C(F)(F)F)c(Cl)c3)C(=O)N2C1 [PP2829] | – | – | – | – | A (a compound having 10 or more and less than 20 is denoted as A) | A (a compound having 10 or more and less than 20 is denoted as A)
– | 0.4 nM | C=CCCC[C@H]1C(=O)N[C@@H]([C@@H](C)CC)C(=O)N(C)CC(=O)N(C)[C@H]2CCCCN(C2=O)[C@@H](Cc2ccc(C(F)(F)F)cc2)C(=O)N(C)CC(=O)N[C@@H](CCc2cc(F)c(C(F)(F)F)c(F)c2)C(=O)N2C[C@H](OCC)C[C@H]2C(=O)N[C@](C)(CC=C)C(=O)N(C)[C@@H](C2CCCC2)C(=O)N(C)[C@H](C(=O)N2CCOCC2)CC(=O)N1C [PP0876] | C (A compound having a KD ratio of 0.1 or more and less than 3 is denoted as C) | C (A compound having a KD ratio of 0.1 or more and less than 3 is denoted as C) | – | – | – | –
– | 0.95 nM | CC[C@H](C)[C@@H]1NC(=O)[C@H](CC(C)C)N(C)C(=O)C[C@@H](C)N(C)C(=O)[C@H](C2CCCC2)N(C)C(=O)C2(CCCC2)NC(=O)[C@@H]2CCCN2C(=O)[C@H](CCc2cc(F)c(C(F)(F)F)c(F)c2)NC(=O)CN(C)C(=O)[C@H](Cc2ccc(C(F)(F)F)cc2)N2CC/C=C\C[C@@H](C2=O)N(C)C(=O)CN(C)C1=O [PP1102] | B (a compound having 3 or more and less than 10 is denoted as B) | A (a compound having 10 or more and less than 20 is denoted as A) | – | – | – | –
0.18 nM | – | CCCN1C(=O)CN(C)C(=O)CNC(=O)[C@H]([C@@H](C)CC)NC(=O)[C@H](CC(C)C)N(C)C(=O)C[C@@H](C(=O)N2CCOCC2)N(C)C(=O)[C@H](C2CCCC2)N(C)C(=O)C2(CCCC2)NC(=O)[C@@H]2CCCN2C(=O)[C@H](CCc2ccc(C(F)(F)F)c(Cl)c2)NC(=O)CN(C)C(=O)[C@@H]1Cc1ccc(C(F)(F)F)cc1 [PP0155] ([NMeL]IG[Sar][NPrPhe(4-CF3)][Sar][hPhe(3-Cl-4-CF3)]P[Ac5c][NMeGly(cPent)][NMeD]-Morpholide; lactam N-11) | B (a compound having 3 or more and less than 10 is denoted as B) | C (A compound having a KD ratio of 0.1 or more and less than 3 is denoted as C) | – | – | – | –
